# From patent US11179348B2, “Combination comprising pterostilbene for the treatment of cancer” (FUNDACIÓN UNIVERSIDAD CATÓLICA DE VALENCIA SAN VICENTE …, priority 2015, dated 2021)
# Tested on: AsPC-1 pancreatic cancer cells
# Assay: Nrf2- and redox state-related enzyme activities and metabolites in AsPC-1 cells growing in vivo
# Set-up: species or system human
# Settings: AsPC-1, in vivo +Pter, day 28
# Procedure: To measure enzyme activity, isolated tumor cells were homogenized in 0.1 M phosphate buffer (pH 7.2) at 4° C. GCL and GSS activities were measured as described previously (Obrador, E. et al. Hepatology 35, 74-81 (2002)). GPX (selenium dependent) activity was measured as described by Flohé and Gunzler (Flohe, L. & Gunzler, W. A. Methods Enzymol 105, 114-121 (1984)) using H2O2 as a substrate. GSR activity was determined as described by Akerboom and Sies (Akerboom, T. P. et al, Bull Eur Physiopathol Respir 17 Suppl, 221-227 (1981)). GGT activity was measured as described previously (Obrador, E. et al. Hepatology 35, 74-81 (2002)). GST activity was measured using an assay kit from Sigma. TXNRD activity, defined by the concentration of sodium-lipoate (disulfide) reduced to dehydrolipoate (dithiol) per milligram protein, was measured as previously described (Javvadi, P. et al. Cancer Res 70, 1941-1950 (2010)). SOD activity was measured as described by Flohé and Otting (Flohe, L. & Otting, F. Methods Enzymol 105, 93-104 (1984).) using 2 mM cyanide in the assay medium to distinguish mangano-type enzyme (SOD2) from the cuprozinc type (SOD1). CAT activity was analyzed as described by Aebi (Aebi, H. Methods Enzymol 105, 121-126 (1984)). NOX activity was measured by chemiluminescence following the methodology of Wind et al. (Wind, S. et al. Comparative pharmacology of chemically distinct NADPH oxidase inhibitors. Br J Pharmacol 161, 885-898 (2010)). Protein concentration was determined with the Pierce BCA protein assay (Fisher Scientific, Waltham, Mass.). […]
# GSH, GSSG, NADP^+ and NADPH Determination.
# GSH and GSSG were determined, following procedures previously described (Obrador, E. et al. PLoS One 9, e96466 (2014)), by LC/MS using the same equipment described above for pterostilbene determination. Cell processing was performed according to published methodology, where rapid N-ethylmaleimide derivatization was used to prevent GSH auto-oxidation (Asensi, M. et al. Anal Biochem 217, 323-328 (1994)). NADP^+ and NADPH were quantitated using an assay kit from Sigma (St. Louis, Mo.).
compound,measurement,value
"COc1cc(/C=C/c2ccc(O)cc2)cc(OC)c1 [Pter, trans-3,5-dimethoxy-4′-hydroxystilbene]",CAT,1.2 ± 0.3 mU/10^6 cells
same,G6PDH,317 ± 84 mU/10^6 cells
same,GCL,85 ± 27 mU/10^6 cells
same,GGT,27.5 ± 7.4 mU/10^6 cells
same,GPX,15.0 ± 2.6 mU/10^6 cells
same,GSH,10.4 ± 2.0 nmol/10^6 cells
same,GSH/GSSG,35 ± 6
same,GSR,5.5 ± 1.2 mU/10^6 cells
same,GSS,12.4 ± 2.7 mU/10^6 cells
same,GSSG,0.3 ± 0.1 nmol/10^6 cells
same,GST,8.0 ± 1.5 mU/10^6 cells
same,H2O2,1.4 ± 0.3 nmol/10^6 cells × min
same,IDH,1.0 ± 0.3 U/10^6 cells
same,ME,55 ± 15 mU/10^6 cells
same,NADPH,0.05 ± 0.02 nmol/mg prot
same,NADPH/NADP^+,1.7 ± 0.4
same,NADP^+,0.03 ± 0.01 nmol/mg prot
same,NOX,115 ± 33 R.L.U./10^6 cells
same,O2′−,"8.4 ± 2.4 ΔFL1, a.u."
same,SOD1,0.2 ± 0.05 U/10^6 cells
same,SOD2,0.05 ± 0.02 U/10^6 cells
same,TXN,0.3 ± 0.15 μg/10^6 cells
same,TXNRD,0.7 ± 0.2 U/10^6 cells
